Assay results from patent publication US20100279329A1, “METHOD FOR THE STABILISATION OF PURIFIED P-GLYCOPROTEIN” (UNIVERSITY OF BRIGHTON, priority 2007, published 2010).
Entries after “also recorded” stand apart in the source; their conditions may differ. One block for each molecule: values may come before it.

Columns and labels:
P-glycoprotein (P-gp) [1] = target: T1, P-glycoprotein (P-gp) (Homo sapiens, UniProt P08183); assay: ATPase activity of P-gp proteoliposomes after freeze drying, rehydration and storage; assay type: biochemical; design: made in house; host or cells: Trichoplusia ni (High Five) insect cells, recombinant baculovirus; conditions: storage at 4° C. only
Protocol: All freeze drying was carried out using a CHRIST Alpha 2-4 (MartinChrist, Germany) with the condenser temperature set to −80° C. Initial experiments were performed with product in micro-centrifuge tubes. Later experiments were performed using 2 ml glass freeze drying vials and freeze drying injection stoppers in conjunction with a stoppering system. This permitted vials to be sealed under vacuum, thus avoiding moisture uptake from the atmosphere when the chamber pressure was raised to atmospheric. In all experiments the shelf was pre-cooled to −80° C. to avoid melting of products whilst the chamber was being evacuated to the required pressure.
In order for freeze drying to be considered successful P-gp must have at least retained ATPase activity on rehydration immediately after freeze drying. On completion of the freeze drying cycle the solid product cake was rehydrated with distilled water. The product vial was vortexed to ensure the dried product was completely dissolved and rehydrated. […]
P-gp proteoliposomes were freeze dried, sealed and stored at a range of temperatures (4° C., 20° C. and 37° C.) and ATPase activity was assessed at intervals up to 150 days. […]
Following rehydration of P-gp proteoliposomes the ATPase activity was measured as described earlier. Activity was assessed following storage at 4° C., 20° C. and 37° C. at intervals up to 30 days.

P-glycoprotein (P-gp) [2] = target: T1, P-glycoprotein (P-gp); assay: ATPase activity, varying ATP concentration (Michaelis-Menten kinetics), colorimetric Pi release; assay type: biochemical; design: made in house; host or cells: Trichoplusia ni (High Five) insect cells, recombinant baculovirus; conditions: for Nicardipine stimulated Vmax / Effect of the disaccharide on nicardipine stimulated ATPase activity (Vmax): 30 μM nicardipine; for Nicardipine stimulated Vmax / Basal Vmax: glycerol purified P-gp, mean (SEM), n=4; for Basal Vmax / Effect of the disaccharide on basal ATPase activity: no drug; for Effect of the disaccharide on nicardipine stimulated ATPase activity (Vmax) / Effect of the disaccharide on basal ATPase activity: 10-300 mM disaccharide added to glycerol purified P-gp, two way ANOVA
Protocol: A colorimetric assay (Chifflet et al., 1988) was used to determine ATP hydrolysis via release of inorganic phosphate. P-gp activity was expressed as μmol Pi/min/mg protein.
A 0-20 nmol standard curve was set up using KH2PO4 as a source of Pi. Background Pi was measured using wells containing no protein or drug only ATP and ATPase buffer (50 mM Tris pH 7.4, 150 mM NH4Cl, 5 mM MgSO4, 0.02% (w/v) NaN3).
The plate was incubated for 20 minutes at 37° C. and the reaction quenched by rapid addition of 40 μl 12% (w/v) SDS to all wells. 100 μl of a 1:1 mixture of 6% (w/v) ascorbate in 1M HCl:1% (w/v) ammonium molybdate (prepared after the reaction had been quenched due to its sensitivity to light) was added to all wells and the plate was incubated for 5 minutes at room temperature. Finally, 100 μl 2% (w/v) sodium citrate/sodium metaarsentie/2% (v/v) acetic acid was added and the plate incubated at 37° C. for 15 minutes. The plate was then allowed to cool and the absorbance measured at a wavelength of 750 nm in a plate reader (SpectraMax 250, Molecular Devices/Multiskan Ascent). The amount of Pi released was calculated from the Pi standard curve and the ATPase activity of P-gp calculated.
The amount of protein (mg) in 20 μl was calculated from the protein concentration determined by BSA standard curve (see 1.2.8) allowing ATPase activity to be determined as μmol/min/mg protein. The Michaelis-Menten equation (Equation 1) was fitted to a graph of ATPase activity using non-linear least squares fit (GraphPad Prism 4.0).
Both varying ATP and varying drug assays were performed.

P-glycoprotein (P-gp) [3] = target: T1, P-glycoprotein (P-gp); assay: ATPase activity, varying drug concentration at constant ATP concentration (dose response); conditions: 300 mM disaccharide vs none; glycerol purified P-gp; two way ANOVA
Source text: The assay was set up, conducted and read in conditions identical to those described above. […] The equation for the general dose response curve is given below (Equation 2).
Equation 2: The general dose response curve equation, where • V=rate of hydrolysis expressed as μmol/min/mg Pi, • Vmax=maximum rate of hydrolysis, • Vmin=minimum rate of hydrolysis, • [D]=concentration of drug, and • EC50=concentration of drug required to produce half maximum rate of hydrolysis.
The highest concentration was similar to that found in the reaction volume of an ATPase assay when a 20% (w/v) buffer was used (10 mM-300 mM). […] Both varying ATP and varying drug assays were performed.

[4] = target: T2, plasma membrane H+-ATPase (Kluyveromyces lactis, UniProt P49380); conditions: cited from earlier work
T2 sequence (P49380 1-899): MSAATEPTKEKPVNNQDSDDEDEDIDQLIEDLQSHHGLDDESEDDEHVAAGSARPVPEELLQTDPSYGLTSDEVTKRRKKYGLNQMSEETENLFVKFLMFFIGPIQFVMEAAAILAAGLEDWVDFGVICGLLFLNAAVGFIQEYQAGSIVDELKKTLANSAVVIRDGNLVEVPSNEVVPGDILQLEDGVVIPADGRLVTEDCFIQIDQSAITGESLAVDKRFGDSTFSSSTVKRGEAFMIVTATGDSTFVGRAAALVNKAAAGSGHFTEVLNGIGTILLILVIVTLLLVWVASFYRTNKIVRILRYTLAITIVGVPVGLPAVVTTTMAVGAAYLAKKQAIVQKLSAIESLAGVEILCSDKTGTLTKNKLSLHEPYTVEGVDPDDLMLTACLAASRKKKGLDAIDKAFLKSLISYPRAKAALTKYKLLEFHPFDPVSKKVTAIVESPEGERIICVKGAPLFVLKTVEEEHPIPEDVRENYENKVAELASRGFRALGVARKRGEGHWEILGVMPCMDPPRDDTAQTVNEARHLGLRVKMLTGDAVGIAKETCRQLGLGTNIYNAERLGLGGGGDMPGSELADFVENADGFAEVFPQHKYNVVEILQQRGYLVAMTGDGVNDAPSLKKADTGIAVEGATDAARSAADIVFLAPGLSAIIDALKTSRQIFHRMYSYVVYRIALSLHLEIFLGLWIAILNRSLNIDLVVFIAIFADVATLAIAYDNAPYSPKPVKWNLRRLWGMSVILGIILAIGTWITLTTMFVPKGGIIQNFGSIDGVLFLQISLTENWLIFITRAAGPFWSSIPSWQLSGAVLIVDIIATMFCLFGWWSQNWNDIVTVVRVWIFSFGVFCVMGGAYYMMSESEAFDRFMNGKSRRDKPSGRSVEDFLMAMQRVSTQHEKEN

T1 sequence (P08183 whole entry): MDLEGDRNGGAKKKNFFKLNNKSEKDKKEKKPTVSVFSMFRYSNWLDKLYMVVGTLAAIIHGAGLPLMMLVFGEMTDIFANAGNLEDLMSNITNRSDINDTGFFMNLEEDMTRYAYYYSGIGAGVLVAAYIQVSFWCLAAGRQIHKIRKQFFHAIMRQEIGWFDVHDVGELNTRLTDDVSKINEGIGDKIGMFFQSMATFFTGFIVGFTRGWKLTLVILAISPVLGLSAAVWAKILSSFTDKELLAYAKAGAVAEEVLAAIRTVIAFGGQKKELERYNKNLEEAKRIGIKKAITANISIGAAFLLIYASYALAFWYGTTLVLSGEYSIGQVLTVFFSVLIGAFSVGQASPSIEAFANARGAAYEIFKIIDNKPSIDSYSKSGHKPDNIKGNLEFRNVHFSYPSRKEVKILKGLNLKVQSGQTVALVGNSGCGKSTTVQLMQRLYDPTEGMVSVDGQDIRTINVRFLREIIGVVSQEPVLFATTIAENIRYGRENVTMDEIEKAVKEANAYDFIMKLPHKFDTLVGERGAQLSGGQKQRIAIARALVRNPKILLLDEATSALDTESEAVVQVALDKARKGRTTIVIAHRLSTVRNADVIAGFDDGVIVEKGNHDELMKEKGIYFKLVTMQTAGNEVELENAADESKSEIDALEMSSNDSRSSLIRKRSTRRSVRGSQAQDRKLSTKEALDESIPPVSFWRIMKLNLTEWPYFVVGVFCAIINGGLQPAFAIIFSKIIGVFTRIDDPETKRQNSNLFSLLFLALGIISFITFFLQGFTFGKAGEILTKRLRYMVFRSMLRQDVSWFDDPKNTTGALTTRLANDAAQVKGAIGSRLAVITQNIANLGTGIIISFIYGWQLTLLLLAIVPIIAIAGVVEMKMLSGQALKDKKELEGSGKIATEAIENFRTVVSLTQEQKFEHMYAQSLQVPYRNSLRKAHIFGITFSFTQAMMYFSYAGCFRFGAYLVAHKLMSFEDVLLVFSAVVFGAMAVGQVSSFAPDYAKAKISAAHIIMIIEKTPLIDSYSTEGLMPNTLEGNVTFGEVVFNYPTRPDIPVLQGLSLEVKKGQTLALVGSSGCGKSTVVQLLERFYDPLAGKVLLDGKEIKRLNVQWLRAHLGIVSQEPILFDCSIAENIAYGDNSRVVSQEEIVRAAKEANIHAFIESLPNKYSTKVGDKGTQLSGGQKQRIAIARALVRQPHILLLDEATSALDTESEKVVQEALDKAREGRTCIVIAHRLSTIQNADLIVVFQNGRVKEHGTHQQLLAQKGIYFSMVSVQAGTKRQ

Time for which P-gp ATPase activity is preserved after freeze drying (P-glycoprotein (P-gp) [1]): ≤ 12 days | Nicardipine stimulated Vmax (P-glycoprotein (P-gp) [2]; 10 mM maltose): 1.7 (1.1) μmol/min/mg | Basal Vmax (P-glycoprotein (P-gp) [2]; 10 mM maltose): 0.1 (0.4) μmol/min/mg | Nicardipine stimulated Vmax (P-glycoprotein (P-gp) [2]; 30 mM maltose): 1.1 (0.6) μmol/min/mg | Basal Vmax (P-glycoprotein (P-gp) [2]; 30 mM maltose): 0.1 (0.1) μmol/min/mg | Nicardipine stimulated Vmax (P-glycoprotein (P-gp) [2]; 100 mM maltose): 1.0 (0.3) μmol/min/mg | Basal Vmax (P-glycoprotein (P-gp) [2]; 100 mM maltose): 0.1 (0.6) μmol/min/mg | Nicardipine stimulated Vmax (P-glycoprotein (P-gp) [2]; 300 mM maltose): 0.9 (0.4) μmol/min/mg | Basal Vmax (P-glycoprotein (P-gp) [2]; 300 mM maltose): 0.1 (0.2) μmol/min/mg
SMILES: OC[C@H]1O[C@H](O[C@H]2[C@H](O)[C@@H](O)[C@@H](O)O[C@@H]2CO)[C@H](O)[C@@H](O)[C@@H]1O [Maltose, α-D-glucopyranosyl (1-4) α-D-glucopyranose]
Effect of the disaccharide on nicardipine stimulated ATPase activity (Vmax) (P-glycoprotein (P-gp) [2]): no significant affect; also recorded: did not alter; also recorded: does not effect; also recorded: no significant difference | Effect of the disaccharide on basal ATPase activity (P-glycoprotein (P-gp) [2]): remained unchanged; also recorded: no significant difference

SMILES: OC[C@H]1O[C@H](O[C@H]2O[C@H](CO)[C@@H](O)[C@H](O)[C@H]2O)[C@H](O)[C@@H](O)[C@@H]1O [Trehalose, α-D-glucopyranosyl (1-1) α-D-glucopyranose]
Effect of the disaccharide on potency of nicardipine to stimulate ATPase activity (P-glycoprotein (P-gp) [3]): did not affect; also recorded: unaffected; also recorded: no significant difference | Nicardipine stimulated Vmax (P-glycoprotein (P-gp) [2]; 10 mM trehalose): 4.7 (1.6) μmol/min/mg | Basal Vmax (P-glycoprotein (P-gp) [2]; 10 mM trehalose): 0.86 (0.67) μmol/min/mg | Nicardipine stimulated Vmax (P-glycoprotein (P-gp) [2]; 30 mM trehalose): 5.6 (2.3) μmol/min/mg | Basal Vmax (P-glycoprotein (P-gp) [2]; 30 mM trehalose): 0.63 (0.4) μmol/min/mg | Nicardipine stimulated Vmax (P-glycoprotein (P-gp) [2]; 100 mM trehalose): 4.9 (2.1) μmol/min/mg | Basal Vmax (P-glycoprotein (P-gp) [2]; 100 mM trehalose): 1.0 (0.86) μmol/min/mg | Nicardipine stimulated Vmax (P-glycoprotein (P-gp) [2]; 300 mM trehalose): 3.7 (1.3) μmol/min/mg | Basal Vmax (P-glycoprotein (P-gp) [2]; 300 mM trehalose): 0.7 (0.54) μmol/min/mg | Effect of the disaccharide on nicardipine stimulated ATPase activity (Vmax) (P-glycoprotein (P-gp) [2]): did not affect; also recorded: does not affect; also recorded: no significant difference | Effect of the disaccharide on basal ATPase activity (P-glycoprotein (P-gp) [2]): does not affect; also recorded: no significant difference | Effect on ATPase activity of plasma membrane H+-ATPase ([4]; 0.6 M to 0.8M trehalose, 20° C.): inhibit | Reduction in Vmax of plasma membrane H+-ATPase ([4]; high trehalose concentrations, 40° C.): negligible
